“And” between values parts separate entries of the source, which are not always exact repeats. Identical values can stand only once.
Assays:
[1] = tested on: arginine vasopressin; assay: Change in mean arterial pressure after AVP injection in rats, before and after nasal administration of the selective antagonist; type: in vivo, Wistar rats
Description: On the day before experimental testing, each rat was placed under ether anesthesia, and the right iliac artery and the right external jugular vein were catherized with PE-50 tubing. On the day following surgery, with the animal remaining unrestrained, the mean arterial pressure was monitored via a Hewlett-Packard 1280C transducer and a 7702B Recorder.
A vasopressin injection was prepared by diluting commercially obtained Pitressin at 20 U/ml concentration with 5% dextrose in water (hereinafter "D5W") to yield a sterile 20 mU/ml final concentration. […] All intravenous injections of vasopressin were flushed through using an additional volume comprising 0.2-0.3 ml of D5W.
Each experimental animal was tested in two stages: initially, two 0.1 ml injections each containing 2.0 millipressor units of arginine vasopressin were given through the venous catheter over a ten minute period and the individual changes in mean arterial pressure recorded. This stage identified each of the test animals as being susceptible to the physiological effects of vasopressin. The second stage of the experiment comprised release of 0.1 ml containing 250 ug of the selective antagonist onto the nasal mucosae of the rat via a PE-50 catheter which had been inserted into one of the nostrils to a depth of about four millimeters. This administration of the antagonist as a nasal spray onto the mucosae of the nose was followed by repeated injection of 0.1 ml volumes, each containing 2.0 millipressor units of arginine vasopressin, at 10, 20, 30, 60, and 120 minutes after the administration of the selective antagonist. The change in mean arterial pressure was recorded at each of these intervals after each injection of the vasopressin.

[2] = tested on: arginine vasopressin; settings: 0.5 mg i.v.; exogenous AVP 20 mU/kg; cited from earlier work

Molecule	effect of repeated 2.0 mU vasopressin injection after nasal spraying ([1]; 250 ug nasal, for at least the two hours of the test)	Changes in Mean Arterial Pressure After Antagonist Adm. + AVP Injections, 10' ([1]; individual rats, 250 ug antagonist onto nasal mucosae, 2.0 mU AVP i.v. 10 min later)	Changes in Mean Arterial Pressure After Antagonist Adm. + AVP Injections, 20' ([1]; individual rats, 250 ug antagonist onto nasal mucosae, 2.0 mU AVP i.v. 20 min later)	Changes in Mean Arterial Pressure After Antagonist Adm. + AVP Injections, 30' ([1]; individual rats, 250 ug antagonist onto nasal mucosae, 2.0 mU AVP i.v. 30 min later)	Changes in Mean Arterial Pressure After Antagonist Adm. + AVP Injections, 60' ([1]; individual rats, 250 ug antagonist onto nasal mucosae, 2.0 mU AVP i.v. 60 min later)	Changes in Mean Arterial Pressure After Antagonist Adm. + AVP Injections, 120' ([1]; individual rats, 250 ug antagonist onto nasal mucosae, 2.0 mU AVP i.v. 120 min later)	inhibition of the blood pressure response to exogenous arginine vasopressin [2] [%]	mean change in arterial pressure ([1]; 2.0 millipressor units AVP i.v., mean of the three test animals)	Changes in Mean Arterial Pressure After AVP Injection Alone ([1]; individual rats, 2.0 millipressor units AVP i.v., no antagonist)
[1-(β-mercapto-β,β-cyclopentamethylenepropionic acid), 2-(O-methyl)tyrosine]arginine vasopressin [AVP Antagonist]	no significant effect	0 mm Hg and +5 mm Hg	0 mm Hg and +5 mm Hg	0 mm Hg and +5 mm Hg	0 mm Hg and +5 mm Hg	0 mm Hg and +5 mm Hg	80		
NC(=O)CC[C@@H]1NC(=O)[C@H](Cc2ccccc2)NC(=O)[C@H](Cc2ccc(O)cc2)NC(=O)[C@@H](N)CSSC[C@@H](C(=O)N2CCC[C@H]2C(=O)N[C@@H](CCCN=C(N)N)C(=O)NCC(N)=O)NC(=O)[C@H](CC(N)=O)NC1=O [AVP, arginine vasopressin, reference compound]								about 35 mmHg	+37.5 mm Hg and +38.5 mm Hg and +29.0 mm Hg

Source: US4762820A, “Therapeutic treatment for congestive heart failure” (Trustees of Boston University, priority 1986, dated 1988)
